Reference: patent US20120164083A1, “Sweetness Enhancers Including Rebaudioside A or D” (Redpoint Bio Corporation, priority 2009, published 2012)
“And” between values parts separate entries of the source, which are not always exact repeats. Identical values can stand only once. “Also recorded” adds a separate entry of the source.

How the values were obtained:
Assay type in all cases: in vivo, human
expert taste panel [1] = assay: double-blind controlled sweetness intensity test of solutions, sequential monadic, sip and spit (Example 1 protocol); conditions: for sweetness of the solution compared with 7% (w/v-%) fructose solution: 300 μM in 5% (w/v-%) fructose solution; for sweetness of the solution compared with 7% (w/v-%) sucrose solution: 300 μM in 5% (w/v-%) sucrose solution, 20 judges; for mean sweetness intensity score: scale 0 to 8
expert taste panel [2] = assay: double-blind controlled sweetness intensity test in iced tea, taste and swallow (Example 6 protocol)
Description: The sweetness enhancing effect of 300 μM Reb C (Chromadex, CA; purity 94.9%; […]) (equivalent to the sweetness intensity of an 8% (w/v-%) sucrose solution) was evaluated in a double-blind controlled test conducted according to the following protocol. Three products were evaluated by trained judges as follows: • high concentration HFCS (14.29% w/v; equivalent to 11% w/v sucrose solution) • low concentration HFCS (10.39% w/v; equivalent to 8% w/v sucrose solution) • low concentration HFCS+sweetness enhancer (test compound)
(§1) The products were evaluated using a sequential monadic test protocol. Subjects were given three 10 ml samples to evaluate. Each subject was directed to taste and swallow each sample and then assess the sweetness intensity of the sample. The intensity was rated on a score card by marking a numerical value along a scale from 0 to 8 (e.g., 0=none, 2=slight, 4=definite, 8=very strong). Following the decision regarding the sweetness intensity, subjects were instructed to vigorously rinse their mouth with water. Subjects then were given unsalted crackers to cleanse the palate. A period of 10 minutes elapsed between presentations of each sample to reduce the potential influence of residual taste effects. A second sample was then presented and evaluated as above and the same procedure was followed until all three products were evaluated. […]

subjects = assay: qualitative taste evaluation of Reb C water solutions (forced-choice and open report, Example 3); conditions: for qualitative taste description: one line per subject
Description: Subjects were asked to sip most or all of the 10 ml from the first cup, swish the liquid in their oral cavity, and expectorate into a cup, then rinse their mouths vigorously with water. Soon thereafter, the contents of the second cup were sampled in the same manner. Then, subjects were asked to choose the sweeter of the two samples, or if not sweet, to describe the qualitative taste profile of the sample having a detectable taste. […] The subjects have the following qualitative taste descriptions: […]

panelists = assay: quantitative flavor profile by trained panelists (Example 11)
Description: The taste of 150, 300, and 600 μM Reb C was evaluated by a test group. 10 panelists were trained over a period of a few weeks to provide a quantitative flavor profile of Reb C. Panelists first were trained using standard tastants representing the different taste modalities given in FIG. 10 (i.e., sweet, bitter, salt, sour, and licorice). They then were trained to use the scales when flavors were mixed together. All intensity ratings are on scales ranging from 0 (no taste) to 8 (highest intensity). The intensity rating for sweet is essentially the same as used in Examples 1 and 6. The taste profiles were obtained for 150, 300, and 600 μM Reb C. Reb A (0.2 mg/ml, a concentration used in some food/beverage applications for sweetening) was also evaluated in the test for comparison. The scale is not linear at the bottom. A rating of 1 is around the threshold for sweetness detection.

expert taste panel [3] = assay: double-blind controlled sweetness intensity test of enhancer combinations, taste and swallow (Example 12 protocol); conditions: 5% (w/v-%) sucrose solution alone; scale 0 to 8
Description: The sweetness enhancing effect of the combination of 40 μM Reb A (purity>95%) and 300 μM Reb C (Chromadex, CA; purity 94.9%; 2.9% impurities other than water) on 5% (w/v-%) sucrose solution was evaluated in a double-blind controlled test conducted according to the following protocol. Four products were evaluated by trained judges as follows: • low concentration sucrose (5% w/v) • low concentration sucrose+sweetness enhancer 1 (40 μM Reb A) • low concentration sucrose+sweetness enhancer 2 (300 μM Reb C) • low concentration sucrose+sweetness enhancer 1+sweetness enhancer 2
as §1, with “A period of 10 minutes elapsed between presentations of each sample to reduce the potential influence of residual taste effects.” left out

[4] = 300 μM in 8% (w/v-%) sucrose solution
[5] = 250 μM water solution, five subjects

Row | Compound | sweetness of the solution compared with 8% and 11% (w/v-%) sucrose solutions (expert taste panel [1]; 150 μM in 8% (w/v-%) sucrose solution) | sweetness of the solution compared with 7% (w/v-%) fructose solution (expert taste panel [1]) | sweetness of the solution compared with 7% (w/v-%) sucrose solution (expert taste panel [1]) | sweetness of the solution compared with 11% (w/v-%) sucrose solution (expert taste panel [1]; [4]) | mean sweetness intensity score (expert taste panel [1]; 8% (w/v-%) sucrose solution with 150 μM Reb C) | sweetness compared with 8% and 11% (w/v-%) sucrose (expert taste panel [2]; 300 μM in iced tea with 8% (w/v-%) sucrose) | sweetness compared with 14.29% (w/v-%) HFCS solution (equivalent to 11% sucrose) (expert taste panel [2]; 300 μM in iced tea with 10.39% (w/v-%) HFCS) | forced-choice identification of the sample against water (subjects; [5]) | qualitative taste description (subjects; [5]) | qualitative taste description (subjects; 250 and 300 μM in water, four subjects) | unpleasant tastes, bitter and licorice (panelists; 150, 300 and 600 μM alone) | intrinsic sweetness (panelists; 150, 300 and 600 μM, scale 0 to 8) | unpleasant tastes, bitter and licorice (panelists; combined with sugar) | mean sweetness intensity score (expert taste panel [1]; 8% (w/v-%) sucrose solution alone) | mean sweetness intensity score (expert taste panel [1]; 11% (w/v-%) sucrose solution alone) | mean sweetness intensity (expert taste panel [3]) | off-tastes (expert taste panel [1]; [4]) | mean sweetness intensity score (expert taste panel [1]; 8% (w/v-%) sucrose solution with 300 μM Dulc A)
1 | rebaudioside C [Reb C] | between that of the 8% (w/v-%) sucrose solution and that of an 11% (w/v-%) sucrose solution | close to that of a 7% (w/v-%) fructose solution | indistinguishable from that of a 7% (w/v-%) sucrose solution | close to that of an 11% (w/v-%) sucrose solution | 6.10 | between that of the 8% (w/v-%) solution and that of an 11% (w/v-%) sucrose solution | indistinguishable from that of a 14.29% (w/v-%) HFCS solution | All subjects correctly identified the sample containing Reb C | Metallic, not sweet; also recorded: Aversive (“Nasty”); also recorded: Slight sweet, astringent; also recorded: Faintly sweet; also recorded: Slight sweet/licorice | Both concentrations bitter and/or licorice | barely detected | little or no intrinsic sweetness | undetected |  |  |  |  | 
2 | OC[C@H]1O[C@@](CO)(O[C@H]2O[C@H](CO)[C@@H](O)[C@H](O)[C@H]2O)[C@@H](O)[C@@H]1O [sucrose, α-D-glucopyranosyl-(1→2)-β-D-fructofuranose, reference compound] |  |  |  |  |  |  |  |  |  |  |  |  |  | 5.30 and 5.0 | 6.95 and 6.7 | about 4 |  | 
3 | C=C1C[C@@]23CC[C@H]4[C@@](C)(CCC[C@@]4(C)C(=O)O[C@@H]4O[C@H](CO)[C@@H](O)[C@H](O)[C@H]4O)[C@@H]2CC[C@]1(O[C@@H]1O[C@H](CO)[C@@H](O)[C@H](O)[C@H]1O[C@@H]1O[C@@H](C)[C@H](O)[C@@H](O)[C@H]1O)C3 [Dulc A, dulcoside A] |  | achieved that of a 7% (w/v-%) fructose solution | achieved that of a 7% (w/v-%) sucrose solution | approached that of an 11% (w/v-%) sucrose solution |  |  |  |  |  |  |  |  |  |  |  |  | No off-tastes were detected | 6.3
